Assay results as given in patent US20130096067A1, “DROSOPHILA TUMOR STEM CELL MODEL AND USES THEREOF” (priority 2011, published 2013).
Counter-ions that a name gives are not always drawn.

Test system: Raf-1^gof intestinal tumors
Test: Luciferase screen of FDA-approved (NCI) drugs in 96-well plates, flies with Raf-1^gof intestinal tumors; on Avg (3 + 6): test concentration or dose not given here; on Log2 (fold): test concentration or dose not given here
Format: in vivo, Drosophila
[1] = average of Day 3 and Day 6 fold
[2] = log2 of the Day 3 fold difference in luciferase relative to DMSO controls
[3] = luciferase activity relative to DMSO controls, single dose of drug for three days, 96-well plates
[4] = six-day protocol: single dose for three days, then another dose for three more days

Structure (SMILES)	Avg (3 + 6) (in vivo) [fold]	Day 3 Fold (in vivo) [fold]	Day 6 Fold (in vivo) [fold]	Log2 (fold) (in vivo)	Avg (3 + 6) [1] [fold]	Log2 (fold) [2]	Day 3 Fold [3] [fold]	Day 6 Fold [4] [fold]	Day 3 Fold (po, 72 h) [fold]	Log2 (fold) (po, 72 h)
O=P1(N(CCCl)CCCl)NCCCO1 (stereo not drawn) [Cyclophosphamide]	0.857	0.982	0.732	−0.025						
Nc1ccn([C@@H]2O[C@H](CO)[C@@H](O)[C@@H]2O)c(=O)n1 [Cytarabine HCl]					1.112	0.100	1.072	1.153		
CN(C)/N=N/c1[nH]cnc1C(N)=O [Dacarbazine]					0.960	−0.010	0.993	0.927		
Cc1nc(Nc2ncc(C(=O)Nc3c(C)cccc3Cl)s2)cc(N2CCN(CCO)CC2)n1 [Dasatinib]					1.085	0.521	1.435	0.736		
COc1cccc2c1C(=O)c1c(O)c3c(c(O)c1C2=O)C[C@@](O)(C(C)=O)C[C@@H]3O[C@H]1C[C@H](N)[C@H](O)[C@H](C)O1 [Daunorubicin HCl]					0.227	−1.484	0.358	0.096		
Nc1ncn([C@H]2C[C@H](O)[C@@H](CO)O2)c(=O)n1 [Decitabine]					0.569	−1.077	0.474	0.663		
C[C@@H](CN1CC(=O)NC(=O)C1)N1CC(=O)NC(=O)C1 [Dexrazoxone]					0.599	−0.428	0.743	0.454		
CC(=O)O[C@@]12CO[C@@H]1C[C@H](O)[C@@]1(C)C(=O)[C@H](O)C3=C(C)[C@@H](OC(=O)[C@H](O)[C@@H](NC(=O)OC(C)(C)C)c4ccccc4)C[C@@](O)([C@@H](OC(=O)c4ccccc4)[C@H]21)C3(C)C [Docetaxel]					0.514	−0.887	0.541	0.487		
COc1cccc2c1C(=O)c1c(O)c3c(c(O)c1C2=O)C[C@@](O)(C(=O)CO)C[C@@H]3O[C@H]1C[C@H](N)[C@H](O)[C@H](C)O1 [Doxorubicin HCl]					1.084	−0.090	0.939	1.228		
C#Cc1cccc(Nc2ncnc3cc(OCCOC)c(OCCOC)cc23)c1 [Erlotinib HCl]	0.986	1.030	0.942	0.042						
C=C1C[C@@H]2[C@H](CC[C@]3(C)C(=O)CC[C@@H]23)[C@@]2(C)C=CC(=O)C=C12 [Exemestane]					0.739	−0.246	0.843	0.634		
O=c1[nH]c(=O)n([C@H]2C[C@H](O)[C@@H](CO)O2)cc1F [Floxuridine]					0.149	−2.204	0.217	0.080		
Nc1nc(F)nc2c1ncn2[C@@H]1O[C@H](CO)[C@@H](O)[C@@H]1O [Fludarabine]					1.191				1.192	0.253
O=c1[nH]cc(F)c(=O)[nH]1 [Fluorouracil]					0.770	−0.448	0.733	0.806		
C[C@]12CC[C@@H]3c4ccc(O)cc4C[C@@H](CCCCCCCCC[S+]([O-])CCCC(F)(F)C(F)(F)F)[C@H]3[C@@H]1CC[C@@H]2O (stereo partly drawn) [Fulvestrant]					1.172	−0.221	0.858	1.486		
COc1cc2ncnc(Nc3ccc(F)c(Cl)c3)c2cc1OCCCN1CCOCC1 [Gefitinib]	0.886									
Nc1ccn([C@@H]2O[C@H](CO)[C@@H](O)C2(F)F)c(=O)n1 [Gemcitabine HCl]					0.104	−2.666	0.158	0.051		
NC(=O)NO [Hydroxyurea]					0.990	−0.184	0.880	1.099		

Structure (SMILES)	Avg (3 + 6) (in vivo) [fold]	Day 3 Fold (in vivo) [fold]	Day 6 Fold (in vivo) [fold]	Log2 (fold) (in vivo)	Avg (3 + 6) [1] [fold]	Log2 (fold) [2]	Day 3 Fold [3] [fold]	Day 6 Fold [4] [fold]	Day 3 Fold (po, 72 h) [fold]	Log2 (fold) (po, 72 h)
O=P1(NCCCl)OCCCN1CCCl (stereo not drawn) [Ifosfamide]					1.004	−0.026	0.982	1.026		
Cc1ccc(NC(=O)c2ccc(CN3CCN(C)CC3)cc2)cc1Nc1nccc(-c2cccnc2)n1 [Imatinib]					0.674	−0.558	0.679	0.670		
CC(C)Cn1cnc2c(N)nc3ccccc3c21 [Imiquimod]					0.888	0.086	1.061	0.715		
CCc1c2c(nc3ccc(OC(=O)N4CCC(N5CCCCC5)CC4)cc13)-c1cc3c(c(=O)n1C2)COC(=O)[C@]3(O)CC [Irinotecan HCl]	0.705	0.870	0.541	−0.201						
C/C(=C\c1csc(C)n1)[C@@H]1C[C@@H]2O[C@]2(C)CCC[C@H](C)[C@H](O)[C@@H](C)C(=O)C(C)(C)[C@@H](O)CC(=O)N1 [Ixabepilone]					0.765	−0.009	0.994	0.536		
CS(=O)(=O)CCNCc1ccc(-c2ccc3ncnc(Nc4ccc(OCc5cccc(F)c5)c(Cl)c4)c3c2)o1 [Lapatinib]					0.976	−0.097	0.935	1.017		
Nc1cccc2c1CN(C1CCC(=O)NC1=O)C2=O (stereo not drawn) [Lenalidomide]					0.853	−0.117	0.922	0.784		
N#Cc1ccc(C(c2ccc(C#N)cc2)n2cncn2)cc1 [Letrozole]					1.302	0.337	1.263	1.342		
O=NN(CCCl)C(=O)NC1CCCCC1 [Lomustine, CCNU, Lomustine]					0.712				0.651	−0.619
CC(=O)O[C@]1(C(C)=O)CC[C@H]2[C@@H]3C=C(C)C4=CC(=O)CC[C@]4(C)[C@H]3CC[C@@]21C [Megestrol acetate]					1.219	0.418	1.336	1.101		
N[C@@H](Cc1ccc(N(CCCl)CCCl)cc1)C(=O)O [Melphalan]					0.939	0.001	1.001	0.876		
S=c1nc[nH]c2nc[nH]c12 [Mercaptopurine]					0.945	0.101	1.072	0.818		
COc1c2occc2cc2ccc(=O)oc12 [Methoxsalen]					0.927	−0.016	0.989	0.866		
Clc1ccc(C(c2ccccc2Cl)C(Cl)Cl)cc1 (stereo not drawn) [Mitotane]	0.882	0.827	0.938	−0.274						
O=C1c2c(O)ccc(O)c2C(=O)c2c(NCCNCCO)ccc(NCCNCCO)c21 [Mitoxantrone]					0.883	−0.303	0.810	0.955		
COc1nc(N)nc2c1ncn2[C@@H]1O[C@H](CO)[C@@H](O)[C@@H]1O [Nelarabine]					1.194	0.166	1.122	1.266		
Cc1cn(-c2cc(NC(=O)c3ccc(C)c(Nc4nccc(-c5cccnc5)n4)c3)cc(C(F)(F)F)c2)cn1 [Nilotinib]					0.804	−0.615	0.653	0.956		
